Source: US20210386792A1, “A METHOD FOR INCREASING POPULATION OF SPERMATOGONIAL STEM CELLS” (priority 2018, published 2021)

Test system: LiECs
Experiment: GDNF ELISA in conditioned media from LiECs
Type: cell-based
Conditions: mouse LiECs
Description: Testis, lung, or liver ECs were plated (10,000 cells ml^−1) on 12 well dishes coated with 0.1% gelatin and cultured for 24 hours. Conditioned media was harvested at 24 and 48 hours after FGF-2 (2 ng ml^−1, 20 ng ml^−1 and 50 ng ml^−1) treatment and analyzed by ELISA for GDNF (Promega GDNF Emax immunoassay system, #G7621) following the manufacturer's instruction. Statistics was analyzed using Graph Pad Prism. For quantification of Gdnf mRNA, total RNA was isolated from the cells using Direct-zol RNA MiniPrep (Zymo Research) and reverse transcribed using High Capacity cDNA Reverse Transcription Kit (Appliedbiosystems), according to the manufacturer's instructions. All gene expression levels were normalized to GAPDH mRNA levels.
FIG. 2. a. Quantication of GDNF by ELISA in conditioned media from TECs, LuECs and LiECs after treatment with the indicated concentration of FGF-2 for 2 days, n=3. Bar=100 μm. Data are presented as the mean±s.e.m. b. Representative brighteld (BF) and GFP images of 2D cultures of GFP+ SSCs co-cultured with STO cells or TECs plus exogenous GDNF and FGF-2 on days 1 and 8 after seeding. Quantication of stem cell numbers 8 days after co-culture with STO or TECs and the average colony area are shown on the right, n=3. Data are presented as the mean±s.e.m. Bar=100 μm. *P<0.05. c. […]

fibroblast growth factor-2 [FGF-2]
GDNF production in conditioned media of LiECs after FGF-2 treatment: not
